Key:
HEK-293 cells = experiment: MTT cytotoxicity assay, HEK-293; assay type: cell-based, human; details: 48 h of drug exposure
Method: The in vitro cytotoxicity of the Ti(IV) complexes under investigation was investigated using MTT, a micro-titration colorimetric method. The in vitro cytotoxicity test of the Ti(IV) complexes was evaluated against the cervical cancer cell line (HeLa), human breast cancer cell line (MCF-7) and human kidney normal cell line (HEK-293).[65,66]
In the cytotoxicity assay, tetrazolium salt 3-[4,5-dimethylthiazol-2-yl]-2,5diphenyl tetrazolium bromide (MTT) was utilized to assess cell viability. […] A Bio-Rad xMARK™ multi-well plate reader was used to measure the absorbance of each well at 570 nm. Using eqn (2), the percentage viability, which represents the relative viability of the treated cells in comparison to the control cells, was calculated, and the IC50 values and standard deviation of the substances under investigation were calculated in triplicate.2 [drawing 2]
An MTT assay was used to examine the cytotoxic effectiveness of the produced Ti(IV) complexes. After 48 hours of incubation, the cytotoxicity of Ti-1-IS to Ti-6-IBr was evaluated against human cancer cell lines, such as breast carcinoma (MCF7) and cervical cancer (HeLa), as well as the non-cancerous human embryonic kidney (HEK) cell line, by using the widely used therapeutic drug, cis-platin, as a positive control by following the standard protocol.

CT-DNA = experiment: UV-vis absorption titration with CT-DNA; assay type: binding, calf
Method: The UV-vis titration technique was employed to conduct DNA binding investigations of the newly synthesized Ti(IV)complexes. The binding interactions between Ti(IV) complexes and CT-DNA 5 mM (5 × 10^−5 M) produced in PBS buffer were assessed in a 5 mM phosphate buffer (PBS) with a pH of 7.4. The ratio of UV absorbance of CT-DNA at each position, 260 and 280 nm, was confirmed. The concentration of each nucleotide was calculated using the molar absorption coefficient (6600 m^−1) of CT-DNA at 260 nm. Additional dilutions were made in 5 mM PBS buffer solution, and stock solutions of metal complexes were prepared in DMSO. DNA binding experiments were performed with a fixed concentration of the complex (20 μM) and increasing concentrations of CT-DNA (0–80 μM) in sample solutions to detect the CT-DNA absorbance peak.[41,42]
UV-vis spectra typically show a shift in wavelength and a change in absorption spectra as a result of the interaction of the Ti(IV) complexes with DNA. […] Then, using eqn (4), the binding characteristics for the aforementioned complexes, including binding constant (Kb) and binding sites, were determined.4 [drawing 4] where εa, εf, and εb represent the apparent extinction coefficient of the complex, the extinction coefficient of the complex in its free form and the extinction coefficient of the complex when completely bound to DNA.

Row | Compound | IC50 (HEK-293 cells) [µM] | Binding constant with DNA (CT-DNA) [M⁻¹]
1 | [O-]C(=NN=Cc1c([O-])ccc2ccccc12)c1ccncc1.[O-]C(=NN=Cc1c([O-])ccc2ccccc12)c1ccncc1.[Ti+4] [Ti-2-IN] | > 250 | –
2 | [O-]C(=NN=Cc1cc(F)ccc1[O-])c1ccncc1.[O-]C(=NN=Cc1cc(F)ccc1[O-])c1ccncc1.[Ti+4] [Ti-4-IF] | – | 297000
3 | [O-]C(=NN=Cc1cc(Cl)ccc1[O-])c1ccncc1.[O-]C(=NN=Cc1cc(Cl)ccc1[O-])c1ccncc1.[Ti+4] [Ti-5-ICl] | > 250 | –

Reference: publication PMC12264794, “Homoleptic complexes of titanium(IV) fused with O^N^O Schiff base derivatives: design, BSA–DNA interaction, molecular docking, DFT and cytotoxicity” (RSC Advances, 2025)
